The target of this assay is T1, human orexin type 2 receptor (Homo sapiens, UniProt O43614).
T1 construct: expressed in transfected cells
T1 sequence (O43614 1-444): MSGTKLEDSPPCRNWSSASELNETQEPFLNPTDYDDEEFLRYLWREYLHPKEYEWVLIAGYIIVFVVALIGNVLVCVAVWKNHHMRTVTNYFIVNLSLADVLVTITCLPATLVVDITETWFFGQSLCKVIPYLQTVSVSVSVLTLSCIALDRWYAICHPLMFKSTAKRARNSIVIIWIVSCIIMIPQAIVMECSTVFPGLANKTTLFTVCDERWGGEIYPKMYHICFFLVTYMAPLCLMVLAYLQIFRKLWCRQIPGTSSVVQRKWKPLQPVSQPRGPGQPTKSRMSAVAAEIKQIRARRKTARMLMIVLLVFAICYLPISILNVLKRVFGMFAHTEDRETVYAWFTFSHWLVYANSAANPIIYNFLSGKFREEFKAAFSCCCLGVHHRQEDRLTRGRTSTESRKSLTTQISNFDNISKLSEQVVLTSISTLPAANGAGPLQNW
Kind of assay: Measurement of orexin type 2 receptor agonist activity (calcium indicator fluorescence, CHO cells forcibly expressing human OX2 receptor). It counts as cell-based. To be noted: compound at 3 μM; 0% = DMSO, 100% = orexin A (human) 10 nM. From the text:
To obtain a cell clone stably expressing human orexin type 2 receptor, human orexin type 2 receptor cDNA was inserted into pcDNA3.1(+) plasmid vector (Invitrogen), and a plasmid DNA for expression of human orexin type 2 receptor (pcDNA3.1(+)/hOX2R) was cloned. The plasmid DNA was introduced into CHO-dhfr cell by an electroporation method, and human orexin type 2 receptor expressing clone cells were obtained by limiting dilution method by using G418 drug resistance as a selection marker.
CHO cells forcibly expressing human OX2 receptor were seeded in each well of 384 well black transparent bottom plate (BD Falcon) at 7,500 cells/well, and cultured for one day in a 5% CO2 incubator at 37° C. After removal of the medium in the cell plate, assay buffer A containing a calcium indicator (HBSS (Thermo Fisher Scientific), 20 mM HEPES (Thermo Fisher Scientific), 0.1% BSA (Sigma-Aldrich), 2.5 μg/mL Fluo-4 AM (DOJINDO Chemical), 0.08% Pluronic F127 (DOJINDO Chemical), 1.25 mM probenecid (DOJINDO Chemical)) was added at 30 μL/well. The plate was stood for 30 min in a 5% CO2 incubator at 37° C., and further stood at room temperature for 30 min. A test compound prepared by diluting with assay buffer B (HBSS, 20 mM HEPES, 0.1% BSA) was added at 10 μL/well, and the fluorescence value was measured by FDSSμCELL (Hamamatsu Photonics K.K.) every one sec for 1 min, and thereafter every two sec for […]. The activity (%) of the test compound was calculated assuming that variation in the fluorescence value when DMSO was added instead of the test compound was 0%, and variation in the fluorescence value when orexin A (human) (PEPTIDE INSTITUTE, INC.) was added at the final concentration of 10 nM was 100%.

For the compound `Cc1cccc(-c2cccc(C[C@H]3[C@@H](NS(=O)(=O)C4CC4)[C@@H](F)CN3C(=O)C3CCO3)c2F)c1` (stereo partly drawn) [Example 489, N-[(2S,3R,4S)-4-fluoro-2-[(2-fluoro-3′-methyl[1,1′-biphenyl]-3-yl)methyl]-1-(oxetane-2-carbonyl)pyrrolidin-3-yl]cyclopropanesulfonamide], the “OX2R agonist activity (3 μM, %)” value is listed as 92%. The same measure for `CCS(=O)(=O)N[C@@H]1[C@H](Cc2cccc(-c3cccc(F)c3F)c2F)N(C(=O)C2CC2)CC1(F)F` [Example 204, N-{(2S,3R)-1-(cyclopropanecarbonyl)-4,4-difluoro-2-[(2,2′,3′-trifluoro[1,1′-biphenyl]-3-yl)methyl]pyrrolidin-3-yl}ethanesulfonamide]: 89%. As to `CS(=O)(=O)N[C@@H]1[C@H](Cc2cccc(-c3cccc(F)c3)c2)N(C(=O)[C@H]2CCCO2)CC1(F)F` [Example 26, N-{(2S,3R)-4,4-difluoro-2-[(3′-fluoro[1,1′-biphenyl]-3-yl)methyl]-1-[(2R)-oxolane-2-carbonyl]pyrrolidin-3-yl}methanesulfonamide], the “OX2R agonist activity (3 μM, %)” value worked out at 100%. The same measure for `CS(=O)(=O)N[C@@H]1[C@H](Cc2cccc(-c3cc(F)ccc3F)c2F)N(C(=O)C2CC(F)C2)CC1(F)F` (stereo partly drawn) [Example 439, N-{(2S,3R)-4,4-difluoro-1-(3-fluorocyclobutane-1-carbonyl)-2-[(2,2′,5′-trifluoro[1,1′-biphenyl]-3-yl)methyl]pyrrolidin-3-yl}methanesulfonamide]: 93%; for `CC(C)C(=O)N1CC(F)(F)[C@H](NS(C)(=O)=O)[C@@H]1Cc1cccc(-c2cccc(F)c2F)c1` [Example 131, N-[(2S,3R)-2-[(2′,3′-difluoro[1,1′-biphenyl]-3-yl)methyl]-4,4-difluoro-1-(2-methylpropanoyl)pyrrolidin-3-yl]methanesulfonamide]: 94%. The same measure for `CCS(=O)(=O)N[C@@H]1[C@H](Cc2cccc(-c3cccc(C(F)F)c3)c2F)N(C(=O)C2CC(F)C2)CC1(F)F` (stereo partly drawn) [Example 505, N-[(2S,3R)-2-{[3′-(difluoromethyl)-2-fluoro[1,1′-biphenyl]-3-yl]methyl}-4,4-difluoro-1-(3-fluorocyclobutane-1-carbonyl)pyrrolidin-3-yl]ethanesulfonamide]: 88%. The same measure for `CN(C)C(=O)N1C[C@H](F)[C@H](NS(=O)(=O)N(C)C)[C@@H]1Cc1cccc(-c2cccc(F)c2)c1F` [Example 344, (2S,3R,4S)-2-[(2,3′-difluoro[1,1′-biphenyl]-3-yl)methyl]-3-[(dimethylsulfamoyl)amino]-4-fluoro-N,N-dimethylpyrrolidine-1-carboxamide]: 102%; for `Cc1cccc(-c2cccc(C[C@H]3[C@@H](NS(=O)(=O)C4CC4)C(F)(F)CN3C(=O)N3CCC3)c2F)c1F` [Example 527, N-{(2S,3R)-1-(azetidine-1-carbonyl)-2-[(2,2′-difluoro-3′-methyl[1,1′-biphenyl]-3-yl)methyl]-4,4-difluoropyrrolidin-3-yl}cyclopropanesulfonamide]: 95%; for `CS(=O)(=O)N[C@H]1[C@@H](F)CN(C(=O)C23CC(C2)C3)[C@H]1Cc1cccc(-c2cc(F)cc(F)c2)c1F` [Example 374, N-{(2S,3R,4S)-1-(bicyclo[1.1.1]pentane-1-carbonyl)-4-fluoro-2-[(2,3′,5′-trifluoro[1,1′-biphenyl]-3-yl)methyl]pyrrolidin-3-yl}methanesulfonamide]: 93%. Regarding `CCS(=O)(=O)N[C@@H]1[C@H](Cc2cccc(-c3cccc(F)c3)c2F)N(C(=O)[C@H]2C[C@@H](F)C2)CC1(F)F` [Example 226, N-[(2S,3R)-2-[(2,3′-difluoro[1,1′-biphenyl]-3-yl)methyl]-4,4-difluoro-1-((1s,3R)-3-fluorocyclobutane-1-carbonyl)pyrrolidin-3-yl]ethanesulfonamide], the “OX2R agonist activity (3 μM, %)” value amounted to 100%.

`Cc1cccc(-c2cccc(C[C@H]3[C@@H](NS(=O)(=O)C4CC4)C(F)(F)CN3C(=O)N3CCC3)c2F)c1` [Example 426, N-{(2S,3R)-1-(azetidine-1-carbonyl)-4,4-difluoro-2-[(2-fluoro-3′-methyl[1,1′-biphenyl]-3-yl)methyl]pyrrolidin-3-yl}cyclopropanesulfonamide]: the “OX2R agonist activity (3 μM, %)” value is given as 90%. To `CS(=O)(=O)N[C@@H]1[C@H](Cc2cccc(-c3cc(F)ccc3F)c2F)N(C(=O)C2CC(F)C2)CC1(F)F` (stereo partly drawn) [Example 437, N-{(2S,3R)-4,4-difluoro-1-(3-fluorocyclobutane-1-carbonyl)-2-[(2,2′,5′-trifluoro[1,1′-biphenyl]-3-yl)methyl]pyrrolidin-3-yl}methanesulfonamide] belongs 84%; to `CC(C)(O)C(=O)N1CC(F)(F)[C@H](NS(C)(=O)=O)[C@@H]1Cc1cccc(-c2cccc(F)c2)c1F` [Example 7, N-[(2S,3R)-2-[(2,3′-difluoro[1,1′-biphenyl]-3-yl)methyl]-4,4-difluoro-1-(2-hydroxy-2-methylpropanoyl)pyrrolidin-3-yl]methanesulfonamide], 101%. To `CN(C)S(=O)(=O)N[C@@H]1[C@H](Cc2cccc(-c3cccc(F)c3)c2F)N(C(=O)[C@H]2CCO2)CC1(F)F` [Example 541, N′-{(2S,3R)-2-[(2,3′-difluoro[1,1′-biphenyl]-3-yl)methyl]-4,4-difluoro-1-[(2R)-oxetane-2-carbonyl]pyrrolidin-3-yl}-N,N-dimethylsulfuric diamide] belongs 100%; to `O=C(C1CCO1)N1C[C@H](F)[C@H](NS(=O)(=O)C2CC2)[C@@H]1Cc1cccc(-c2cccc(F)c2F)c1F` (stereo partly drawn) [Example 480, N-{(2S,3R,4S)-4-fluoro-1-(oxetane-2-carbonyl)-2-[(2,2′,3′-trifluoro[1,1′-biphenyl]-3-yl)methyl]pyrrolidin-3-yl}cyclopropanesulfonamide], 101%.

Turning to `CC(C)C(=O)N1CC(F)(F)[C@H](NS(=O)(=O)C2CC2)[C@@H]1Cc1cccc(-c2cc(F)cc(F)c2)c1F` [Example 166], the “OX2R agonist activity (3 μM, %)” value came to 98%. To `CCS(=O)(=O)N[C@H]1[C@@H](F)CN(C(=O)C2CCO2)[C@H]1Cc1cccc(-c2cccc(F)c2)c1F` (stereo partly drawn) [Example 217, N-[(2S,3R,4S)-2-[(2,3′-difluoro[1,1′-biphenyl]-3-yl)methyl]-4-fluoro-1-(oxetane-2-carbonyl)pyrrolidin-3-yl]ethanesulfonamide] belongs 96%; to `CCS(=O)(=O)N[C@H]1[C@@H](F)CN(C(=O)C2CC2)[C@H]1Cc1cccc(-c2ccccc2F)c1F` [Example 518, N-{(2S,3R,4S)-1-(cyclopropanecarbonyl)-2-[(2,2′-difluoro[1,1′-biphenyl]-3-yl)methyl]-4-fluoropyrrolidin-3-yl}ethanesulfonamide], 98%; to `CCS(=O)(=O)N[C@@H]1[C@H](Cc2cccc(-c3cccc(F)c3)c2F)N(C(=O)C2CC2)CC1(F)F` [Example 202, N-{(2S,3R)-1-(cyclopropanecarbonyl)-2-[(2,3′-difluoro[1,1′-biphenyl]-3-yl)methyl]-4,4-difluoropyrrolidin-3-yl}ethanesulfonamide], 94%.
